Where a SMILES comes first, the peptide text is derived from it. [ ]: non-standard residue; d: D form. Aib = CC(C)(N)C(=O)O
Assays:
SNAP-GLP-1R = molecular target: T1, SNAP-GLP-1R (Homo sapiens, UniProt P43220); experiment: GLP-1R internalisation by DERET in HEK293-SNAP-GLP-1R cells; type: cell-based; conditions: average response of last 3 time points of 30 min, mean ± SEM, n = 5, read-out: DERET (HEK293-SNAP-GLP-1R) pEC50 (converted)
T1 construct: expressed in transfected cells
Protocol: The assay was performed as previously described. HEK-SNAP-GLP-1R cells were labelled using 40 nM of SNAP-Lumi4-Tb in complete medium for 60 min at room temperature. After washing, the cells were resuspended in HBSS containing 24 μM of fluorescein and dispensed into 96-well white plates. A baseline read was serially recorded for 5 min using a FlexStation 3 instrument at 37 °C in TR-FRET mode using the following settings: λex at 340 nm, λem at 520 and 620 nm, auto cut-off, delay of 400 μs, and integration time of 1500 μs? Ligands were then added, after which the signals were repeatedly recorded for 30 min. The fluorescence signals were expressed ratiometrically after first subtracting signals from wells containing 24 μM of fluorescein but no cells. Internalisation was quantified as the AUC relative to the individual well baseline, and concentration-response curves were generated with Prism 8.0.

[1] = test system: primary mouse hepatocytes; experiment: cAMP accumulation in primary mouse hepatocytes; type: cell-based; conditions: expressed relative to 10 μM forskolin response, mean ± SEM, n = 4; for cAMP 10 min (primary hepatocytes) Emax: 100 μM IBMX; for cAMP 16 h (primary hepatocytes) Emax: 100 μM IBMX for final 10 min
Protocol: Hepatocytes from adult male C57Bl/6J mice were isolated using collagenase perfusion. After filtering and washing, the cells were used to directly assay cAMP responses as described in the next section.
(§1) PathHunter cells were stimulated with the indicated concentration of agonist for 30 min at 37 °C in serum-free medium without phosphodiesterase inhibitors. INS-1 832/3 cells were stimulated with the indicated concentration of agonist for 10 min at 37 °C in serum-free medium with 100 μM of 3-isobutyl-1-methylxanthine (IBMX). Primary dispersed mouse islet cells prepared by triturating intact islets in 0.05% trypsin/EDTA for 3 min at 37 °C were stimulated with the indicated concentration of agonist for 5 min at 37 °C in serum-free medium with 11 mM of glucose and 500 μM of IBMX. Primary mouse hepatocytes were stimulated in serum-free medium with 100 μM of IBMX for 10 min or 16 h in serum-free medium with 100 μM of IBMX added for the final 10 min of incubation. Huh7-GCGR cells were stimulated in serum-free medium without phosphodiesterase inhibitors for 10 min or for 16 h in serum-free medium. Where relevant, forskolin (10 μM) was added as a positive or normalisation control. At the end of each incubation, cAMP was then assayed by HTRF (Cisbio cAMP Dynamic 2) and concentration-response curves were constructed with 3-parameter curve fitting using Prism 8.0.

[2] = Pharmacokinetic study in rats (SC with ZnCl2, plasma radioimmunoassay); type: in vivo, rat; conditions: 4 mg/kg SC with zinc, up to 72 h
Protocol: The mice were administered 0.5 mg/kg of peptide via IP injection. Four h after injection, blood was acquired by venesection into lithium heparin-coated microvette tubes (Sarstedt, Germany). In a separate study, male Sprague Dawley rats (average weight 250 g, obtained from Charles River) were administered 4 mg/kg of peptide SC mixed in aqueous ZnCl2 solution to a molar ratio of 0.7:1 (peptide:ZnCl2), and blood was collected by venesection at several time points up to 72 h. Plasma was separated by centrifugation at 10,000 g for 8 min at 4 °C. Plasma concentrations were assessed by radioimmunoassay using an in-house assay as previously described using standard curves generated from each SRB103 peptide to ensure that equivalent recovery was obtained.

GCGR [3] = molecular target: T2, GCGR (Homo sapiens, UniProt P47871); experiment: cAMP production (HTRF) in PathHunter CHO-K1 cells expressing GCGR; type: cell-based; set-up: expressed in transfected cells; conditions: 30 min, mean ± SEM, n = 6; for EC50: 37 °C, serum-free medium, no phosphodiesterase inhibitors, read-out: GCGR CAMP (CHO–K1) pEC50 (converted); for Emax: CHO-K1, normalised to globally fitted maximum response
T2 sequence (P47871 26-477): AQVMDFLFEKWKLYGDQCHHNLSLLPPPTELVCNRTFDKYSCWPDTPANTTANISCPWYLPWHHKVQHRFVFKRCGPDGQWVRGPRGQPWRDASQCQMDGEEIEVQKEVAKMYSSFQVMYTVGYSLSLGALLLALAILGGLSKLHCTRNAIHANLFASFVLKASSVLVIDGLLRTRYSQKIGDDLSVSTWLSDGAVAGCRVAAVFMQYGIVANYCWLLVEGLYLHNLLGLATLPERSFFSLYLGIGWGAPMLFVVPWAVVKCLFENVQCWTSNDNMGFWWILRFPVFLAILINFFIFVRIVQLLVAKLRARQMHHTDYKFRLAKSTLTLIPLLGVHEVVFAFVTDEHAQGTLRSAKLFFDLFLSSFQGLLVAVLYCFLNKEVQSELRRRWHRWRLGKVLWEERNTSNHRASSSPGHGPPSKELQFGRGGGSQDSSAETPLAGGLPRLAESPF
Protocol: (§2) HEK293T cells were maintained in DMEM supplemented with 10% FBS and 1% penicillin/streptomycin. PathHunter CHO–K1-βarr2-EA cells stably expressing human GLP-1R, GCGR, or GIPR and PathHunter CHO–K1-βarr1-EA cells stably expressing GCGR were obtained from DiscoverX and maintained in Ham's F12 medium with 10% FBS and 1% penicillin/streptomycin. Stable HEK293-SNAP-GLP-1R cells were maintained in DMEM supplemented with 10% FBS, 1% penicillin/streptomycin, and 1 mg/ml of G418. INS-1 832/3 cells, a gift from Professor Chris Newgard (Duke University), were maintained in RPMI with 11 mM of glucose supplemented with 10% FBS, 10 mM of HEPES, 1 mM of pyruvate, 50 μM of β-mercaptoethanol, and 1% penicillin/streptomycin. Huh7 cells stably expressing human GCGR (Huh7-GCGR) were maintained in DMEM supplemented with 10% FBS, 1 mg/ml of G418, and 1% penicillin/streptomycin.
as §1

GLP-1R = GLP-1R (Homo sapiens, UniProt P43220); experiment: cAMP production (HTRF) in PathHunter CHO-K1 cells expressing GLP-1R; type: cell-based; set-up: host or cells: PathHunter CHO-K1-βarr2-EA; conditions: 30 min, mean ± SEM, n = 6; for EC50: 37 °C, serum-free medium, no phosphodiesterase inhibitors, read-out: GLP-1R cAMP (CHO–K1) pEC50 (converted); for Emax: CHO-K1, normalised to globally fitted maximum response
Sequence of GLP-1R (P43220 24-463): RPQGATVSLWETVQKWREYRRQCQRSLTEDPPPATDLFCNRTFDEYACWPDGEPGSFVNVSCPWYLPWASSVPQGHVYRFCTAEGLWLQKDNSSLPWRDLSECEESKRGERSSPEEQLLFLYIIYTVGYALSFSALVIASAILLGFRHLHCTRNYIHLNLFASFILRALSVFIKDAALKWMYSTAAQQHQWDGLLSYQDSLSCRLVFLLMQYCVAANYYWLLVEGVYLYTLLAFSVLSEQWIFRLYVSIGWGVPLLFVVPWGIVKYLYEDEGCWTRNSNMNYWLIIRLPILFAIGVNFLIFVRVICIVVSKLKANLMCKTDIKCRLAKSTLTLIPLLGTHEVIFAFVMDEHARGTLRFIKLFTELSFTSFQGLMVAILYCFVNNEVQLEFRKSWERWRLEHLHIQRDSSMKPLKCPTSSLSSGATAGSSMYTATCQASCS
Protocol: as §2, §1

GCGR [4] = molecular target: T2, GCGR; experiment: cAMP accumulation in Huh7-GCGR cells; type: cell-based; set-up: expressed in transfected cells; host or cells: Huh7; conditions: mean ± SEM, n = 6; for Emax: expressed relative to 10 μM forskolin response
Protocol: as §2, §1

GCGR [5] = molecular target: T2, GCGR; experiment: NanoBiT mini-Gs recruitment to GCGR-SmBiT in HEK293T cells; type: cell-based; set-up: expressed in transfected cells; host or cells: HEK293T; conditions: SRB103 pair, mean ± SEM, n = 6; for Emax: HEK-293T, normalised to full agonist response, read-out: GCGR mini-Gs (HEK293T) Emax; for EC50: 3-parameter fit, read-out: GCGR mini-Gs (HEK293T) pEC50 (converted)
GCGR [6] = molecular target: T2, GCGR; experiment: NanoBiT β-arrestin-2 recruitment to GCGR-SmBiT in HEK293T cells; type: cell-based; set-up: expressed in transfected cells; host or cells: HEK293T; conditions: SRB103 pair, mean ± SEM, n = 6; for Emax: HEK-293T, normalised to full agonist response, read-out: GCGR βarr2 (HEK293T) Emax; for EC50: 3-parameter fit, read-out: GCGR βarr2 (HEK293T) pEC50 (converted)
[7] = 16 h, read-out: Huh7-GCGR cAMP,16 h Emax
[8] = 16 h, read-out: Huh7-GCGR cAMP,16 h pEC50 (converted)
[9] = Huh7-GCGR cAMP, 10 min pEC50, 10 min, no phosphodiesterase inhibitors
[10] = read-out: Huh7-GCGR cAMP, 10 min Emax, 10 min

T1 sequence (P43220 24-463): as above

Q: With `CC[C@H](C)[C@H](NC(=O)[C@H](Cc1ccccc1)NC(=O)[C@H](CCC(=O)O)NC(=O)[C@H](CCC(N)=O)NC(=O)[C@H](C)NC(=O)[C@H](CCCNC(=N)N)NC(=O)[C@H](CCCCN)NC(=O)[C@H](C)NC(=O)[C@H](CC(=O)O)NC(=O)[C@H](CC(C)C)NC(=O)[C@H](Cc1ccc(O)cc1)NC(=O)[C@H](CCCCN)NC(=O)[C@H](CO)NC(=O)[C@H](Cc1ccc(O)cc1)NC(=O)[C@H](CC(=O)O)NC(=O)[C@H](CO)NC(=O)[C@@H](NC(=O)[C@H](Cc1ccccc1)NC(=O)[C@@H](NC(=O)CNC(=O)[C@H](Cc1c[nH]cn1)NC(=O)C(C)(C)NC(=O)[C@@H](N)Cc1c[nH]cn1)[C@@H](C)O)[C@@H](C)O)C(=O)N[C@@H](CCC(=O)O)C(=O)N[C@@H](Cc1c[nH]c2ccccc12)C(=O)N[C@@H](CC(C)C)C(=O)N[C@@H](CC(C)C)C(=O)N[C@@H](C)C(=O)NCC(=O)N[C@@H](Cc1c[nH]cn1)C(=O)N[C@@H](Cc1c[nH]cn1)C(=O)N[C@@H](Cc1c[nH]cn1)C(=O)N[C@@H](Cc1c[nH]cn1)C(=O)N[C@@H](Cc1c[nH]cn1)C(=O)N1CCC[C@H]1C(=O)N[C@@H](CO)C(=O)N[C@@H](Cc1c[nH]c2ccccc12)C(=O)O` [SRB103H] (H-H[Aib]HGTFTSDYSKYLDAKRAQEFIEWLLAGHHHHHPSW-OH) as the compound, how does the EC50 (SNAP-GLP-1R) read?
A: 20 nM

Q: And the “cAMP 10 min (primary hepatocytes) Emax” value [1]?
A: 170 ± 7

Q: What about the “cAMP 16 h (primary hepatocytes) Emax” value [1] of the same compound?
A: 206 ± 7

Q: And the “Pharmacokinetics by serial plasma sampling” value [2]?
A: no obvious difference in pharmacokinetics

Q: And the EC50 (GCGR [3])?
A: 0.251 nM

Q: And the Emax (GCGR [3])?
A: 107 ± 5%

Q: What about the EC50 (GLP-1R) of the same compound?
A: 0.316 nM

Q: And the Emax (GLP-1R)?
A: 99 ± 4%

Q: And the Emax (GCGR [4]; [7])?
A: 173 ± 11%

Q: What about the EC50 (GCGR [4]; [8]) of the same compound?
A: 0.251 nM

Q: What about the EC50 (GCGR [4]; [9]) of the same compound?
A: 0.0316 nM

Q: What about the Emax (GCGR [4]; [10]) of the same compound?
A: 27 ± 4%

Q: What about the Emax (GCGR [5]) of the same compound?
A: 100%

Q: What about the EC50 (GCGR [5]) of the same compound?
A: 7.94 nM

Q: And the Emax (GCGR [6])?
A: 100%

Q: And the EC50 (GCGR [6])?
A: 31.6 nM

Q: Which results are given for `CC[C@H](C)[C@H](NC(=O)[C@H](Cc1ccccc1)NC(=O)[C@H](CCC(=O)O)NC(=O)[C@H](CCC(N)=O)NC(=O)[C@H](C)NC(=O)[C@H](CCCNC(=N)N)NC(=O)[C@H](CCCCN)NC(=O)[C@H](C)NC(=O)[C@H](CC(=O)O)NC(=O)[C@H](CC(C)C)NC(=O)[C@H](Cc1ccc(O)cc1)NC(=O)[C@H](CCCCN)NC(=O)[C@H](CO)NC(=O)[C@H](Cc1ccc(O)cc1)NC(=O)[C@H](CC(=O)O)NC(=O)[C@H](CO)NC(=O)[C@@H](NC(=O)[C@H](Cc1ccccc1)NC(=O)[C@@H](NC(=O)CNC(=O)[C@H](CCC(N)=O)NC(=O)C(C)(C)NC(=O)[C@@H](N)Cc1c[nH]cn1)[C@@H](C)O)[C@@H](C)O)C(=O)N[C@@H](CCC(=O)O)C(=O)N[C@@H](Cc1c[nH]c2ccccc12)C(=O)N[C@@H](CC(C)C)C(=O)N[C@@H](CC(C)C)C(=O)N[C@@H](C)C(=O)NCC(=O)N[C@@H](Cc1c[nH]cn1)C(=O)N[C@@H](Cc1c[nH]cn1)C(=O)N[C@@H](Cc1c[nH]cn1)C(=O)N[C@@H](Cc1c[nH]cn1)C(=O)N[C@@H](Cc1c[nH]cn1)C(=O)N1CCC[C@H]1C(=O)N[C@@H](CO)C(=O)N[C@@H](Cc1c[nH]c2ccccc12)C(=O)O` [SRB103Q] (H-H[Aib]QGTFTSDYSKYLDAKRAQEFIEWLLAGHHHHHPSW-OH)?
A: EC50 (SNAP-GLP-1R): 20 nM; cAMP 10 min (primary hepatocytes) Emax [1]: 175 ± 12; cAMP 16 h (primary hepatocytes) Emax [1]: 200 ± 6; Pharmacokinetics by serial plasma sampling [2]: no obvious difference in pharmacokinetics; EC50 (GCGR [3]): 0.398 nM; Emax (GCGR [3]): 103 ± 4%; EC50 (GLP-1R): 0.316 nM; Emax (GLP-1R): 103 ± 2%; Emax (GCGR [4]; [7]): 284 ± 38%; EC50 (GCGR [4]; [8]): 0.2 nM; EC50 (GCGR [4]; [9]): 0.0158 nM; Emax (GCGR [4]; [10]): 27 ± 4%; Emax (GCGR [5]): 83 ± 1%; EC50 (GCGR [5]): 20 nM; Emax (GCGR [6]): 77 ± 2%; EC50 (GCGR [6]): 50.1 nM

Source: article PMC8163982, “Partial agonism improves the anti-hyperglycaemic efficacy of an oxyntomodulin-derived GLP-1R/GCGR co-agonist” (Molecular Metabolism, 2021)
